From ChEMBL document CHEMBL5705902, “Role of G Protein-Coupled Receptor Kinases 2 and 3 in μ-Opioid Receptor Desensitization and Internalization” (Mol Pharmacol, 2015)
Activity calls are given as the source filed them. No cut-off for these calls is given here.

Key:
[1] = target: Mu-type opioid receptor (Rattus norvegicus) (UniProt P33535); assay: Inhibition of MOPr desensitization in wistar rat LC neuron cells assessed as reduction in the DAMGO induced desensitization incubated for 15 mins in the presence of GSK650394; assay type: functional, cell-based
Mu-type opioid receptor (Rattus norvegicus), sequence (P33535 whole entry): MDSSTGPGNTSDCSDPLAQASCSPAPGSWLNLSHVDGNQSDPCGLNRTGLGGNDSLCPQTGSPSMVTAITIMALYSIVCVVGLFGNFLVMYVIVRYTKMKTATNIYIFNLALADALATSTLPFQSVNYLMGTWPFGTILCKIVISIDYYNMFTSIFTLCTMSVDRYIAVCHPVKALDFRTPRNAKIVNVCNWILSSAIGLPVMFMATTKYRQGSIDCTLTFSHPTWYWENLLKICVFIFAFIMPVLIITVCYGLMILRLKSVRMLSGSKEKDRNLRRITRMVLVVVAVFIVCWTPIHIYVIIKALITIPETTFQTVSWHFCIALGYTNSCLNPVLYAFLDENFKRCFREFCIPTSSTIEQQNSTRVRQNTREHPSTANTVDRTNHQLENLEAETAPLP

[2] = target: Mu-type opioid receptor (Rattus norvegicus) (UniProt P33535); assay: Inhibition of MOPr desensitization in wistar rat LC neuron cells assessed as reduction in the DAMGO induced desensitization incubated for 15 mins in the presence of Y-27632; assay type: functional, cell-based

Structure (SMILES) | inhibition [1] | inhibition [2]
C[C@@H](N)[C@H]1CC[C@H](C(=O)Nc2ccncc2)CC1 | inactive | 
O=C(O)c1ccc(-c2c[nH]c3ncc(-c4ccccc4)cc23)cc1C1CCCC1 |  | inactive
